According to ChEMBL document CHEMBL1949526, “Cyclic hydroxyamidines as amide isosteres: discovery of oxadiazolines and oxadiazines as potent and highly efficacious γ-secretase modulators in vivo” (J Med Chem, 2012):
The source made the active and inactive calls. No cut-off for these calls is given here.

Legend:
Gamma-secretase [1] = assay: Modulation of gamma-secretase-mediated cleavage of human APP Swedish and London mutation expressed in HEK293 cells assessed as reduction of total amyloid beta level after 5 hrs by sandwich immunoassay; type: cell-based
[2] = biological target: T1, Gamma-secretase (Homo sapiens) (UniProt Q96BI3+Q9NZ42+Q8WW43+P49768+Q92542+P49810); assay: Modulation of gamma-secretase-mediated cleavage of human APP Swedish and London mutation expressed in HEK293 cells assessed as reduction of total amyloid beta/amyloid beta42 ratio after 5 hrs by sandwich immunoassay; type: cell-based
Gamma-secretase [3] = assay: Modulation of gamma-secretase-mediated cleavage of human APP Swedish and London mutation expressed in HEK293 cells assessed as inhibition of amyloid beta42 production after 5 hrs by sandwich immunoassay; type: cell-based
[4] = Chemical stability of the compound in aqueous 0.1 N HCl assessed as decomposition to corresponding acetophenone after 3 hrs; type: physicochemical; details: buffer
Gamma-secretase [5] = assay: Modulation of gamma-secretase-mediated cleavage of human APP Swedish and London mutation expressed in HEK293 cells assessed as inhibition of amyloid beta40 production after 5 hrs by sandwich immunoassay; type: cell-based
[6] = Chemical stability of the compound under neutral conditions; type: physicochemical
[7] = Dissociation constant, pKa of the compound; type: physicochemical
[8] = Chemical stability of the compound in aqueous 0.1 N HCl/MeOH (1:1) assessed as deterioration of enantiomaric excess after 7 days; type: physicochemical; details: buffer, 168 h
[9] = biological target: T1, Gamma-secretase (Homo sapiens); assay: Modulation of gamma-secretase-mediated cleavage of human APP Swedish and London mutation expressed in HEK293 cells assessed as inhibition of amyloid beta39 production at 10 uM by SELDI-MS analysis; type: cell-based
[10] = biological target: T1, Gamma-secretase (Homo sapiens); assay: Modulation of gamma-secretase-mediated cleavage of human APP Swedish and London mutation expressed in HEK293 cells assessed as inhibition of amyloid beta40 production at 10 uM by SELDI-MS analysis; type: cell-based
Rattus norvegicus [11] = assay: Antialzheimer activity in po dosed CD rat assessed as reduction in amyloid beta42 level in CSF after 3 hrs by alphaLISA analysis relative to amyloid beta40 level; type: functional, organism-based
Rattus norvegicus [12] = assay: Antialzheimer activity in CD rat assessed as reduction in amyloid beta42 level in CSF administered as po for 6 days by alphaLISA analysis relative to total amyloid beta40 level; type: functional, organism-based
Rattus norvegicus [13] = assay: Antialzheimer activity in CD rat assessed as reduction in amyloid beta42 level in plasma administered as po for 6 days by alphaLISA analysis relative to total amyloid beta40 level; type: functional, organism-based
Rattus norvegicus [14] = assay: Antialzheimer activity in po dosed CD rat assessed as reduction in amyloid beta42 level in plasma after 3 hrs by alphaLISA analysis relative to amyloid beta40 level; type: functional, organism-based
[15] = biological target: T1, Gamma-secretase (Homo sapiens); assay: Modulation of gamma-secretase-mediated cleavage of human APP Swedish and London mutation expressed in HEK293 cells assessed as inhibition of amyloid beta42 production at 10 uM by SELDI-MS analysis; type: cell-based
[16] = biological target: T1, Gamma-secretase (Homo sapiens); assay: Modulation of gamma-secretase-mediated cleavage of human APP Swedish and London mutation expressed in HEK293 cells assessed as increase in amyloid beta37 production at 10 uM by SELDI-MS analysis; type: cell-based
[17] = biological target: T1, Gamma-secretase (Homo sapiens); assay: Modulation of gamma-secretase-mediated cleavage of human APP Swedish and London mutation expressed in HEK293 cells assessed as increase in amyloid beta38 production at 10 uM by SELDI-MS analysis; type: cell-based
Rattus norvegicus [18] = assay: Antialzheimer activity in CD rat assessed as reduction in amyloid beta42 level in CSF administered as po for 6 days by alphaLISA analysis relative to total amyloid beta level; type: functional, organism-based
Rattus norvegicus [19] = assay: Antialzheimer activity in CD rat assessed as reduction in amyloid beta42 level in plasma administered as po for 6 days by alphaLISA analysis relative to total amyloid beta level; type: functional, organism-based
Rattus norvegicus [20] = assay: Antialzheimer activity in po dosed CD rat assessed as reduction in amyloid beta42 level in CSF after 3 hrs by alphaLISA analysis relative to total amyloid beta level; type: functional, organism-based
Rattus norvegicus [21] = assay: Antialzheimer activity in CD rat assessed as reduction in amyloid beta42 level in cortex administered as po for 6 days by alphaLISA analysis relative to total amyloid beta40 level; type: functional, organism-based
Rattus norvegicus [22] = assay: Antialzheimer activity in po dosed CD rat assessed as reduction in amyloid beta42 level in plasma after 3 hrs by alphaLISA analysis relative to total amyloid beta level; type: functional, organism-based
Rattus norvegicus [23] = assay: Antialzheimer activity in po dosed CD rat assessed as reduction in amyloid beta42 level in cortex after 3 hrs by alphaLISA analysis relative to total amyloid beta level; type: functional, organism-based
Rattus norvegicus [24] = assay: Antialzheimer activity in CD rat assessed as reduction in amyloid beta42 level in cortex administered as po for 6 days by alphaLISA analysis relative to total amyloid beta level; type: functional, organism-based
Rattus norvegicus [25] = assay: Antialzheimer activity in po dosed CD rat assessed as reduction in amyloid beta42 level in cortex after 3 hrs by alphaLISA analysis relative to amyloid beta40 level; type: functional, organism-based
Rattus norvegicus [26] = assay: Antialzheimer activity in rat assessed as reduction in amyloid beta42 level in cortex at 30 mg/kg, po; type: functional; parameters: scale not given: the % may be the effect or the level left
[27] = Permeability from apical to basolateral side of human Caco2 cells; type: ADME, cell-based; details: Caco-2, read-out: permeability
Canis familiaris = species on record: Canis familiaris; assay: Cardiotoxicity in dog assessed as effect on electrocardiographic QTc interval at compound concentration required for pharmacological effect; type: toxicity, organism-based, Canis lupus familiaris; details: in vivo
Rattus norvegicus [28] = assay: Antialzheimer activity in rat assessed as reduction in amyloid beta42 level in CSF at 30 mg/kg, po; type: functional; parameters: scale not given: the % may be the effect or the level left
[29] = biological target: Voltage-gated inwardly rectifying potassium channel KCNH2 (Homo sapiens, UniProt Q12809); assay: Inhibition of human ERG by cell based voltage clamp assay
[30] = Aqueous solubility of the compound at pH 3.5; type: physicochemical; details: aqueous medium
[31] = Lipophilicity, log D of the compound at pH 7.4; type: physicochemical; details: buffer

Sequence of Voltage-gated inwardly rectifying potassium channel KCNH2 (Q12809 whole entry): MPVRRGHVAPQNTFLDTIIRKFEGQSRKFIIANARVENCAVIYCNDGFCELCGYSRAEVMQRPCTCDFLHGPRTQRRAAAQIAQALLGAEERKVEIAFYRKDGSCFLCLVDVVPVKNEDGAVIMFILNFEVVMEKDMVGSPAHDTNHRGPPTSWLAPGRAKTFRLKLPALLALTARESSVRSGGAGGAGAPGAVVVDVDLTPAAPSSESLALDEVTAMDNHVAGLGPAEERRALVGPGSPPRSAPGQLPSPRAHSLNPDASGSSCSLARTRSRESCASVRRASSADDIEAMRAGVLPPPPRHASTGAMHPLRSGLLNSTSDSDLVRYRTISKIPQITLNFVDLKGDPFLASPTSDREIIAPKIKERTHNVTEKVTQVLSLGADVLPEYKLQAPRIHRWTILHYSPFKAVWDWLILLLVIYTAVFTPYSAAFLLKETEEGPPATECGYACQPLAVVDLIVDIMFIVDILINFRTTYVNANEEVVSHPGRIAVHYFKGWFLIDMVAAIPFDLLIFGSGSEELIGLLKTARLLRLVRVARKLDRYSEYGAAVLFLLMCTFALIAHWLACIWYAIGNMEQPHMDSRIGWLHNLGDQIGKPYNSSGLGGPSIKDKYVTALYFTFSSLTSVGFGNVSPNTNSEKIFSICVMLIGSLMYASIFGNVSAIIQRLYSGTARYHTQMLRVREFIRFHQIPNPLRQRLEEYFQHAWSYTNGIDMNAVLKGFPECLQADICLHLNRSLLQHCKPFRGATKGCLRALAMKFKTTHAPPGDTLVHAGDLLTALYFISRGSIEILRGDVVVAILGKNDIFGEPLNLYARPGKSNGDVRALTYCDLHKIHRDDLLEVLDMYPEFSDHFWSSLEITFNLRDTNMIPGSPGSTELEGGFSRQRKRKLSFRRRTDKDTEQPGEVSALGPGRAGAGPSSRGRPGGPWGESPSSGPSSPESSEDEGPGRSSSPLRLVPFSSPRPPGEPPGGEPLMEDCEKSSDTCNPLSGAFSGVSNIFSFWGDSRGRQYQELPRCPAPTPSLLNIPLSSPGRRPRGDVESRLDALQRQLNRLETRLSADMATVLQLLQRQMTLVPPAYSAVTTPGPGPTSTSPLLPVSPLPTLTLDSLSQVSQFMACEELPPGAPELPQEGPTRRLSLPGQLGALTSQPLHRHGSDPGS

Row | Compound | IC50 (Gamma-secretase [1]) | Ratio IC50 [2] | IC50 (Gamma-secretase [3]) | further results
1 | COc1cc(/C=C2\CCCN3C2=NOC3(CO)c2ccc(C#N)cc2)ccc1-n1cnc(C)c1 (single isomer, unassigned) | > 20000 nM | > 171 | 117 nM | –
2 | COCCCN1C(/C=C/c2ccc(-n3cnc(C)c3)c(OC)c2)=NOC1(C)c1ccc(F)cc1 (racemic) | – | – | 187 nM | Stability [4]: Unstable; IC50 (Gamma-secretase [5]): 2000 nM; Stability [6]: Stable
3 | COc1cc(/C=C2\CCCN3C2=NO[C@@]3(CO)c2ccc(F)cc2)ccc1-n1cnc(C)c1 | > 20000 nM | – | 7640 nM | pKa [7]: 5.8; Stability [8]: Stable
4 | COc1cc(/C=C2\CCCN3C2=NO[C@@]3(c2ccc(F)cc2)[C@H](C)O)ccc1-n1cnc(C)c1 | > 20000 nM | > 225 | 89 nM | –
5 | COc1cc(/C=C2\CCCN3C2=NOC3(CO)c2ccc(F)cn2)ccc1-n1cnc(C)c1 (single isomer, unassigned) | 19700 nM | 192 | 103 nM | –
6 | COc1cc(/C=C2\CCCN3C2=NOC[C@@H]3c2cc(F)c(F)c(F)c2)ccc1-n1cnc(C)c1 | – | – | – | Activity [9]: Active; Activity [10]: Active; Activity (Rattus norvegicus [11]): Dose-dependent effect; Activity (Rattus norvegicus [12]): Dose-dependent effect; Activity (Rattus norvegicus [13]): Dose-dependent effect; Activity (Rattus norvegicus [14]): Dose-dependent effect; Activity [15]: Active; Activity [16]: Active; Activity [17]: Active; Activity (Rattus norvegicus [18]): Dose-dependent effect; Activity (Rattus norvegicus [19]): Dose-dependent effect; Activity (Rattus norvegicus [20]): Dose-dependent effect; Activity (Rattus norvegicus [21]): Dose-dependent effect; Activity (Rattus norvegicus [22]): Dose-dependent effect; Activity (Rattus norvegicus [23]): Dose-dependent effect; Activity (Rattus norvegicus [24]): Dose-dependent effect; Activity (Rattus norvegicus [25]): Dose-dependent effect
7 | COc1cc(/C=C2\CCCN3C2=NOC3(CO)c2ccccc2)ccc1-n1cnc(C)c1 (single isomer, unassigned) | 3210 nM | 33 | 96 nM | –
8 | CNC[C@]1(c2ccc(F)cc2)ON=C2/C(=C/c3ccc(-n4cnc(C)c4)c(OC)c3)CCCN21 | > 20000 nM | > 105 | 191 nM | –
9 | c1ccc(-n2ccnc2)cc1 | – | – | – | pKa [7]: 5.1
10 | COC[C@]1(c2ccc(F)cc2)ON=C2/C(=C/c3ccc(-n4cnc(C)c4)c(OC)c3)CCCN21 | 17500 nM | 144 | 122 nM | –
11 | COc1cc(/C=C2\CCCN3C2=NOC3(CO)c2cc(F)cc(F)c2)ccc1-n1cnc(C)c1 (single isomer, unassigned) | 6750 nM | 316 | 21 nM | –
12 | COc1cc(/C=C2\CCCN3C2=NO[C@]3(CN(C)C(C)=O)c2ccc(F)cc2)ccc1-n1cnc(C)c1 | > 20000 nM | > 101 | 199 nM | –
13 | COCCCN(C(=O)/C=C/c1ccc(-n2cnc(C)c2)c(OC)c1)c1cccc2ccccc12 | – | – | 60 nM | –
14 | COc1cc(/C=C2\CCCN([C@@H](C)c3ccc(F)cc3)C2=O)ccc1-n1cnc(C)c1 | – | – | – | Activity (Rattus norvegicus [26]): 44%; Papp A→B [27]: 57.9 ×10⁻⁶ cm/s; Activity (Canis familiaris): Non-toxic; Activity (Rattus norvegicus [28]): 55%; IC50 [29]: 1200 nM
15 | COc1cc(/C=C2\CCCN3C2=NO[C@]3(CNCCO)c2ccc(F)cc2)ccc1-n1cnc(C)c1 | > 20000 nM | > 250 | 80 nM | –
16 | COc1cc(/C=C2\CCCN3C2=NOC[C@@H]3c2cc(F)c(F)c(F)c2)ccc1-n1cnc(C)c1.Cl | – | – | – | solubility [30]: > 100 mM; logD [31]: 5.29
17 | COc1cc(/C=C2\CCCN(C3(c4ccccc4)CCOCC3)C2=O)ccc1-n1cnc(C)c1 | – | – | 56 nM | –
18 | COc1cc(/C=C2\CCCN3C2=NO[C@]3(CN(C)S(C)(=O)=O)c2ccc(F)cc2)ccc1-n1cnc(C)c1 | 19300 nM | 269 | 72 nM | –
19 | COc1cc(/C=C2\CCCN3C2=NO[C@@]3(c2ccc(F)cc2)[C@@H](C)O)ccc1-n1cnc(C)c1 | 16200 nM | 350 | 46 nM | –
20 | COc1cc(/C=C2\CCCN3C2=NOC3(CO)c2ccccc2F)ccc1-n1cnc(C)c1 (single isomer, unassigned) | 10100 nM | 189 | 53 nM | –
21 | COc1cc(/C=C2\CCCN3C2=NOC3(CO)c2cncc(F)c2)ccc1-n1cnc(C)c1 (single isomer, unassigned) | > 20000 nM | > 189 | 106 nM | –
22 | COc1cc(/C=C2\CCCN3C2=NOC3(CO)c2cc(F)c(F)c(F)c2)ccc1-n1cnc(C)c1 (single isomer, unassigned) | 15800 nM | 1020 | 15 nM | –
23 | COc1cc(/C=C2\CCCN3C2=NOC3(CO)c2cccc(F)c2)ccc1-n1cnc(C)c1 (single isomer, unassigned) | 7160 nM | 280 | 26 nM | –
24 | COc1cc(/C=C2\CCCN3C2=NO[C@]3(CN(C)C)c2ccc(F)cc2)ccc1-n1cnc(C)c1 | 18800 nM | 96 | 196 nM | –
